Data reported in ChEMBL document CHEMBL3797077, “Design and synthesis of N-(4-aminopyridin-2-yl)amides as B-Raf(V600E) inhibitors” (Bioorg Med Chem Lett, 2016).

Key:
HT-29 = assay: Cytotoxicity against human HT-29 cells harboring B-Raf V600E mutant assessed as growth inhibition after 72 hrs by MTT assay; type: functional, cell-based; settings: HT-29, 72 h
[1] = Cytotoxicity against human HCT116 cells harboring wild type B-Raf assessed as growth inhibition after 72 hrs by MTT assay; type: functional, cell-based; settings: HCT-116, 72 h
[2] = Cytotoxicity against human COLO205 cells harboring B-Raf V600E mutant assessed as growth inhibition after 72 hrs by MTT assay; type: functional, cell-based; settings: COLO 205, 72 h
[3] = biological target: Serine/threonine-protein kinase B-raf (Homo sapiens, UniProt P15056); assay: Inhibition of recombinant wild type full length human GST-tagged B-Raf expressed in baculovirus expression system using Z'-LYTE Ser/Thr3 peptide as substrate incubated for 1 hr by FRET-based Z'-LYTE assay
Sequence of Serine/threonine-protein kinase B-raf (Homo sapiens, UniProt P15056) (P15056 whole entry): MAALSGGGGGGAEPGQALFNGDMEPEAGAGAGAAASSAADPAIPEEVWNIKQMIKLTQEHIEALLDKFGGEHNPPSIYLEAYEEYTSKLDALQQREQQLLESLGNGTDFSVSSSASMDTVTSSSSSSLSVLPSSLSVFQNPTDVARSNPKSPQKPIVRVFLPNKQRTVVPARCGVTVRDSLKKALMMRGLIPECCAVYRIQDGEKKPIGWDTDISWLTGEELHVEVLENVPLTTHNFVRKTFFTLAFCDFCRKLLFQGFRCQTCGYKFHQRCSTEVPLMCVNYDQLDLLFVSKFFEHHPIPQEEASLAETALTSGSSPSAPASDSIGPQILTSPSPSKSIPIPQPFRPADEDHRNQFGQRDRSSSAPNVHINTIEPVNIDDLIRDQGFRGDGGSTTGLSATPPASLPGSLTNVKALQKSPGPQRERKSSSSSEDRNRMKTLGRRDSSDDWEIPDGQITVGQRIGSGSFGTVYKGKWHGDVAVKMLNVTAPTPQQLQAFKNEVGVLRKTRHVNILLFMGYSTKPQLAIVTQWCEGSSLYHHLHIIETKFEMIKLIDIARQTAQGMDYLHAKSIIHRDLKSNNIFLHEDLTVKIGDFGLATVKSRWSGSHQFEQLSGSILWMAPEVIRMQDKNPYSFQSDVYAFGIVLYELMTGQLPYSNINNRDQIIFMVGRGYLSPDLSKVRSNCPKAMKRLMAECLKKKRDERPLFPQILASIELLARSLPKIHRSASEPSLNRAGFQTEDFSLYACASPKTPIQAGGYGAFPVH

[4] = biological target: Serine/threonine-protein kinase B-raf (Homo sapiens, UniProt P15056, V600E); assay: Inhibition of recombinant human N-terminal GST-tagged B-Raf V600E mutant expressed in baculovirus expression system using Z'-LYTE Ser/Thr3 peptide as substrate incubated for 1 hr by FRET-based Z'-LYTE assay
Sequence of Serine/threonine-protein kinase B-raf (Homo sapiens, UniProt P15056, V600E) (P15056 2-766 V600E limits assumed): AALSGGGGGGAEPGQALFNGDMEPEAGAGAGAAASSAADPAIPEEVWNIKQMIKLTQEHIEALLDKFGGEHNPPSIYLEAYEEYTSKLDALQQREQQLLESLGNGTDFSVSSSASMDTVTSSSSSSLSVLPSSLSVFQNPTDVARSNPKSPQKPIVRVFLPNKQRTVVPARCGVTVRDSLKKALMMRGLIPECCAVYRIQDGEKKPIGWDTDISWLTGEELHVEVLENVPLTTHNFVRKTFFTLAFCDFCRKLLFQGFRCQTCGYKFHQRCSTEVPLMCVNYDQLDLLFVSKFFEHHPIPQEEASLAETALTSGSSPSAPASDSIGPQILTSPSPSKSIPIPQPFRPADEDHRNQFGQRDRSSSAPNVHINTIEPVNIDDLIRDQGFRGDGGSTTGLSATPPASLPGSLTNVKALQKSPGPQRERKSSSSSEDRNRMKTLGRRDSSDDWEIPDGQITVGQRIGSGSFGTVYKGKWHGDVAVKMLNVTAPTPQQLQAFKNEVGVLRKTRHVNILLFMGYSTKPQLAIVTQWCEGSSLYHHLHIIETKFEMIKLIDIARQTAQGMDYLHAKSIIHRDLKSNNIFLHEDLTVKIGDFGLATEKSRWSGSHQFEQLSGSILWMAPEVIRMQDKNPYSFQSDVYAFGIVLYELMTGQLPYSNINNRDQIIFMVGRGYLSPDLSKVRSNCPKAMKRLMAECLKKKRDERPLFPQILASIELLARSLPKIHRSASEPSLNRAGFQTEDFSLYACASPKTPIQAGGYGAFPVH

HCT-116 = assay: Selectivity ratio of IC50 for human HCT116 cells harboring wild type B-Raf to IC50 for human HT-29 cells harboring B-Raf V600E mutant; type: functional
COLO 205 = assay: Selectivity ratio of IC50 for human HCT116 cells harboring wild type B-Raf to IC50 for human COLO205 cells harboring B-Raf V600E mutant; type: functional

Row | Compound | IC50 (HT-29) [nM] | IC50 [1] [nM] | IC50 [2] [nM] | IC50 [3] [nM] | IC50 [4] [nM] | further results
1 | N#Cc1c(Oc2ccc(F)c(NC(=O)Cc3cccc(C(F)(F)F)c3)c2)ccc2nc(NC(=O)C3CC3)sc12 | 33 | 362 | 25 | 77 | – | –
2 | CCC(=O)Nc1cc(Nc2cccc(NC(=O)c3cccc(C4CC4)c3)c2)ccn1 | – | – | – | – | 125 | –
3 | O=C(Nc1cccc(Nc2ccnc(NC(=O)C3CCCCC3)c2)c1)c1cccc(C2CC2)c1 | – | – | – | – | 563 | –
4 | CC(C)(C)c1cccc(C(=O)Nc2cccc(Nc3ccnc(NC(=O)C4CC4)c3)c2)c1 | 991 | 1380 | 787 | 240 | 20 | –
5 | O=C(Nc1cccc(Nc2ccnc(NC(=O)C3CC3)c2)c1)c1cccc(Cl)c1 | – | – | – | – | 785 | –
6 | O=C(Nc1cccc(Nc2ccnc(NC(=O)C3CC3)c2)c1)c1cccc([N+](=O)[O-])c1 | – | – | – | – | 1510 | –
7 | CC(C)(C#N)c1cccc(C(=O)Nc2cccc(Nc3ccnc(NC(=O)C4CC4)c3)c2)c1 | 94 | 1090 | 136 | 476 | 38 | Ratio IC50 (HCT-116): 12; Ratio IC50 (COLO 205): 12
8 | O=C(Nc1cccc(Nc2ccnc(NC(=O)C3CC3)c2)c1)c1ccc(C(F)(F)F)cc1 | – | – | – | – | > 10000 | –
9 | O=C(Nc1cccc(Nc2ccnc(NC(=O)C3CC3)c2)c1)c1cccc(C2CC2)c1 | 92 | 221 | 111 | 453 | 35 | –
10 | CCc1cccc(C(=O)Nc2cccc(Nc3ccnc(NC(=O)C4CC4)c3)c2)c1 | – | – | – | – | 110 | –
11 | O=C(Nc1cccc(Nc2ccnc(NC(=O)C3CCC3)c2)c1)c1cccc(C2CC2)c1 | – | – | – | – | 182 | –
12 | N#Cc1cccc(C(=O)Nc2cccc(Nc3ccnc(NC(=O)C4CC4)c3)c2)c1 | – | – | – | – | 3530 | –
13 | O=C(Nc1cccc(Nc2ccnc(NC(=O)C3CC3)c2)c1)c1cccc(C(F)(F)F)c1 | – | – | – | – | 141 | –
14 | O=C(Nc1cccc(Nc2ccnc(NC(=O)C3CC3)c2)c1)c1ccccc1C(F)(F)F | – | – | – | – | > 10000 | –
15 | CC(C)(C)C(=O)Nc1cc(Nc2cccc(NC(=O)c3cccc(C4CC4)c3)c2)ccn1 | – | – | – | – | 1030 | –
16 | CC(=O)Nc1cc(Nc2cccc(NC(=O)c3cccc(C4CC4)c3)c2)ccn1 | 236 | 367 | 131 | 1200 | 50 | –
17 | CC(C)c1cccc(C(=O)Nc2cccc(Nc3ccnc(NC(=O)C4CC4)c3)c2)c1 | 462 | 1060 | 444 | 148 | 13 | –
18 | N#CC1(c2cccc(C(=O)Nc3cccc(Nc4ccnc(NC(=O)C5CC5)c4)c3)c2)CC1 | 791 | 1350 | 725 | 2030 | 79 | –
19 | CC(C)C(=O)Nc1cc(Nc2cccc(NC(=O)c3cccc(C4CC4)c3)c2)ccn1 | – | – | – | – | 420 | –
20 | Cc1cccc(C(=O)Nc2cccc(Nc3ccnc(NC(=O)C4CC4)c3)c2)c1 | – | – | – | – | 1210 | –
21 | O=C(Nc1cccc(Nc2ccnc(NC(=O)C3CCCC3)c2)c1)c1cccc(C2CC2)c1 | – | – | – | – | 434 | –
22 | CCCS(=O)(=O)Nc1ccc(F)c(C(=O)c2c[nH]c3ncc(-c4ccc(Cl)cc4)cc23)c1F [VEMURAFENIB] | 156 | 14600 | 44 | – | – | –
